From US12516064B2, “Tetrahydropyridopyrimidines and related analogs for inhibiting YAP/TAZ-TEAD” (THE KATHOLIEKE UNIVERSITEIT LEUVEN, priority 2022, dated 2026)

The molecules below were run on YAP/TAZ-TEAD transcription (assay: Reporter gene assay for measuring the inhibition of YAP/TAZ-TEAD transcription). Conditions: Homo sapiens, HEK-293T; Hek293T cells transiently transfected with TEAD-responsive element luciferase reporter; 24 hours incubation.
Type: cell-based
Method: Hek293T cells are cultured in DMEM supplemented with 10% fetal bovine serum, Sodium pyruvate, Sodium bicarbonate, L-glutamine. The cells are harvested and transiently transfected with TEAD-responsive element luciferase reporter. Transfected cells are plated in 384-wells plate containing pre-diluted compounds. After 24 hours incubation at 37° C./5% CO2, assay plates were cooled down to RT and levelled to an equal volume per well, prior to the addition of 25 uL luciferase substrate SteadyLite (Perkin Elmer)/well. The plate was shaken for 10 min at 600 rpm, centrifuged for 1 min at 500 rpm and measured with an Envision reader (PerkinElmer). The amount of relative light units produced by the TEAD reporter is used to calculated percent of inhibition.
The percent of reporter inhibition was calculated in the presence of a positive control inhibitor (100% inhibition) versus a condition with the presence of the vehicle basal activity of the reporter (0% inhibition). The ability of a test compound to inhibit this activity was determined as: Percentage inhibition=[1−((RLU determined in the presence of vehicle−RLU determined for sample with test compound present) divided by (RLU determined in the presence of vehicle−RLU determined for sample with positive control inhibitor))]*100 The activities of example compounds tested are depicted in Table 8. The activity ranges A, B and C refer to IC50 values in the reporter gene assay as follows: “A”: EC50<1 μM; “B”: 1 μM≤EC50≤3.0 μM and “C”: EC50>3.0 μM, NT=not tested.
For `CS(=O)(=O)N1CCc2c(nc(Cc3ccccc3)nc2-c2ccn(Cc3cccnc3)n2)C1` [Cpd. No. 37, 2-benzyl-7-(methylsulfonyl)-4-(1-(pyridin-3-ylmethyl)-1H-pyrazol-3-yl)-5,6,7,8-tetrahydropyrido[3,4-d]pyrimidine], the EC50 was over 3 µM.
`CCC(=O)N1CCc2c(nc(-c3ccccc3)nc2-c2ccn(C)n2)C1` [Cpd. No. 40, 1-(4-(1-methyl-1H-pyrazol-3-yl)-2-phenyl-5,8-dihydropyrido[3,4-d]pyrimidin-7(6H)-yl)propan-1-one] gave an EC50 of 1 to 3 µM.
Work on `C=CC(=O)N1CCc2c(nc(Cc3ccc(F)cc3)nc2-c2ccn(C)n2)C1` [Cpd. No. 41, 1-(2-(4-fluorobenzyl)-4-(1-methyl-1H-pyrazol-3-yl)-5,8-dihydropyrido[3,4-d]pyrimidin-7(6H)-yl)prop-2-en-1-one] yielded an EC50 of under 1 µM.
`CCC(=O)N1CCc2c(nc(Cc3ccc(F)cc3)nc2-c2ccn(C)n2)C1` [Cpd. No. 42, 1-(2-(4-fluorobenzyl)-4-(1-methyl-1H-pyrazol-3-yl)-5,8-dihydropyrido[3,4-d]pyrimidin-7(6H)-yl)propan-1-one] showed an EC50 of over 3 µM.
Work on `CCC(=O)N1CCc2c(nc(Cc3cccc(F)c3)nc2-c2ccn(C)n2)C1` [Cpd. No. 44, 1-(2-(3-fluorobenzyl)-4-(1-methyl-1H-pyrazol-3-yl)-5,8-dihydropyrido[3,4-d]pyrimidin-7(6H)-yl)propan-1-one] yielded an EC50 of over 3 µM.
In the case of `C=CC(=O)N1CCc2c(nc(Cc3ccc(C(F)(F)F)cc3)nc2-c2ccn(C)n2)C1` [Cpd. No. 45, 1-(4-(1-methyl-1H-pyrazol-3-yl)-2-(4-(trifluoromethyl)benzyl)-5,8-dihydropyrido[3,4-d]pyrimidin-7(6H)-yl)prop-2-en-1-one], the EC50 is reported as under 1 µM.
For `CCC(=O)N1CCc2c(nc(Cc3ccc(C(F)(F)F)cc3)nc2-c2ccn(C)n2)C1` [Cpd. No. 47, 1-(4-(1-methyl-1H-pyrazol-3-yl)-2-(4-(trifluoromethyl)benzyl)-5,8-dihydropyrido[3,4-d]pyrimidin-7(6H)-yl)propan-1-one], the EC50 was over 3 µM.
Molecule `CCC(=O)N1CCc2c(nc(Cc3cccc(C(F)(F)F)c3)nc2-c2ccn(C)n2)C1` [Cpd. No. 48, 1-(4-(1-methyl-1H-pyrazol-3-yl)-2-(3-(trifluoromethyl)benzyl)-5,8-dihydropyrido[3,4-d]pyrimidin-7(6H)-yl)propan-1-one] has an EC50 of 1 to 3 µM.
`C=CC(=O)N1CCc2c(nc(Cc3cccc(C(F)(F)F)c3)nc2-c2ccn(Cc3cccnc3)n2)C1` [Cpd. No. 50, 1-(4-(1-(pyridin-3-ylmethyl)-1H-pyrazol-3-yl)-2-(3-(trifluoromethyl)benzyl)-5,8-dihydropyrido[3,4-d]pyrimidin-7(6H)-yl)prop-2-en-1-one] was tested, and the EC50 was under 1 µM.
In the case of `C=CC(=O)N1CCc2c(nc(-c3ccccc3)nc2-c2cnn(C)c2)C1` [Cpd. No. 56], the EC50 is reported as under 1 µM.
With `C=CC(=O)N1CCc2c(nc(-c3ccccc3)nc2-c2cnn(C(C)C)c2)C1` [Cpd. No. 57, 1-(4-(1-isopropyl-1H-pyrazol-4-yl)-2-phenyl-5,8-dihydropyrido[3,4-d]pyrimidin-7(6H)-yl)prop-2-en-1-one] the EC50 was 1 to 3 µM.
For `C=CC(=O)N1CCc2c(nc(-c3ccccc3)nc2C(=O)NCc2cccnc2)C1` [Cpd. No. 58, 7-acryloyl-2-phenyl-N-(pyridin-3-ylmethyl)-5,6,7,8-tetrahydropyrido[3,4-d]pyrimidine-4-carboxamide], the EC50 was 1 to 3 µM.
For `C=CC(=O)N1CCc2c(nc(-c3ccccc3)nc2-c2ccn(CC)n2)C1` [Cpd. No. 59, 1-(4-(1-ethyl-1H-pyrazol-3-yl)-2-phenyl-5,8-dihydropyrido[3,4-d]pyrimidin-7(6H)-yl)prop-2-en-1-one], the EC50 was under 1 µM.
`C=CC(=O)N1CCc2c(nc(-c3ccccc3)nc2-c2ccn(C(C)C)n2)C1` [Cpd. No. 60, 1-(4-(1-isopropyl-1H-pyrazol-3-yl)-2-phenyl-5,8-dihydropyrido[3,4-d]pyrimidin-7(6H)-yl)prop-2-en-1-one] gave an EC50 of under 1 µM.
`C=CC(=O)N1CCc2c(nc(-c3ccccc3)nc2-c2cnn(C(F)F)c2)C1` [Cpd. No. 61, 1-(4-(1-(difluoromethyl)-1H-pyrazol-4-yl)-2-phenyl-5,8-dihydropyrido[3,4-d]pyrimidin-7(6H)-yl)prop-2-en-1-one] showed an EC50 of 1 to 3 µM.
In the case of `C=CC(=O)N1CCc2c(nc(-c3ccccc3)nc2-c2ccnn2C)C1` [Cpd. No. 62, 1-(4-(1-methyl-1H-pyrazol-5-yl)-2-phenyl-5,8-dihydropyrido[3,4-d]pyrimidin-7(6H)-yl)prop-2-en-1-one], the EC50 is reported as 1 to 3 µM.
With `C=CC(=O)N1CCc2c(nc(-c3ccccc3)nc2-c2cccnc2)C1` [Cpd. No. 63, 1-(2-phenyl-4-(pyridin-3-yl)-5,8-dihydropyrido[3,4-d]pyrimidin-7(6H)-yl)prop-2-en-1-one] the EC50 was under 1 µM.
`C=CC(=O)N1CCc2c(nc(-c3ccccc3)nc2-c2ccccc2)C1` [Cpd. No. 64, 1-(2,4-diphenyl-5,8-dihydropyrido[3,4-d]pyrimidin-7(6H)-yl)prop-2-en-1-one] showed an EC50 of under 1 µM.
`C=CC(=O)N1CCc2c(nc(-c3ccccc3)nc2-c2ccncc2)C1` [Cpd. No. 66, 1-(2-phenyl-4-(pyridin-4-yl)-5,8-dihydropyrido[3,4-d]pyrimidin-7(6H)-yl)prop-2-en-1-one] gave an EC50 of 1 to 3 µM.
`C=CC(=O)N1CCc2c(nc(-c3ccccc3)nc2-c2ccccn2)C1` [Cpd. No. 67, 1-(2-phenyl-4-(pyridin-2-yl)-5,8-dihydropyrido[3,4-d]pyrimidin-7(6H)-yl)prop-2-en-1-one] was tested, and the EC50 was under 1 µM.
`C=CC(=O)N1CCc2cnc(-c3ccccc3)nc2C1` [Cpd. No. 68, 1-(2-phenyl-5,8-dihydropyrido[3,4-d]pyrimidin-7(6H)-yl)prop-2-en-1-one] gave an EC50 of under 1 µM.
For `C=CC(=O)N1CCc2c(nc(-c3ccc(F)cc3)nc2-c2ccn(C(F)F)n2)C1` [Cpd. No. 70, 1-(4-(1-(difluoromethyl)-1H-pyrazol-3-yl)-2-(4-fluorophenyl)-5,8-dihydropyrido[3,4-d]pyrimidin-7(6H)-yl)prop-2-en-1-one], the EC50 was under 1 µM.
`C=CC(=O)N1CCc2c(nc(-c3ccc(C(F)(F)F)cc3)nc2-c2ccn(Cc3cccnc3)n2)C1` [Cpd. No. 72, 1-(4-(1-(pyridin-3-ylmethyl)-1H-pyrazol-3-yl)-2-(4-(trifluoromethyl)phenyl)-5,8-dihydropyrido[3,4-d]pyrimidin-7(6H)-yl)prop-2-en-1-one] showed an EC50 of under 1 µM.
Work on `Cn1ccc(-c2nc(-c3ccc(C(F)(F)F)cc3)nc3c2CCN(C(=O)CC#N)C3)n1` [Cpd. No. 75, 3-(4-(1-methyl-1H-pyrazol-3-yl)-2-(4-(trifluoromethyl)phenyl)-5,8-dihydropyrido[3,4-d]pyrimidin-7(6H)-yl)-3-oxopropanenitrile] yielded an EC50 of 1 to 3 µM.
Molecule `C=CC(=O)N1CCc2c(-c3ccn(C)n3)nc(-c3ccc(C(F)(F)F)cc3)nc2C1C` (centres unmarked) [Cpd. No. 76, 1-(8-methyl-4-(1-methyl-1H-pyrazol-3-yl)-2-(4-(trifluoromethyl)phenyl)-5,8-dihydropyrido[3,4-d]pyrimidin-7(6H)-yl)prop-2-en-1-one] has an EC50 of under 1 µM.
Molecule `Cn1ccc(-c2nc(-c3ccc(C(F)(F)F)cc3)nc3c2CCN(C#N)C3)n1` [Cpd. No. 78, 4-(1-methyl-1H-pyrazol-3-yl)-2-(4-(trifluoromethyl)phenyl)-5,8-dihydropyrido[3,4-d]pyrimidine-7(6H)-carbonitrile] has an EC50 of 1 to 3 µM.
Molecule `Cn1ccc(-c2nc(-c3ccc(C(F)(F)F)cc3)nc3c2CCN(S(C)(=O)=O)C3)n1` [Cpd. No. 79, 4-(1-methyl-1H-pyrazol-3-yl)-7-(methylsulfonyl)-2-(4-(trifluoromethyl)phenyl)-5,6,7,8-tetrahydropyrido[3,4-d]pyrimidine] has an EC50 of 1 to 3 µM.
With `C=CS(=O)(=O)N1CCc2c(nc(-c3ccc(C(F)(F)F)cc3)nc2-c2ccn(C)n2)C1` [Cpd. No. 80, 4-(1-methyl-1H-pyrazol-3-yl)-2-(4-(trifluoromethyl)phenyl)-7-(vinylsulfonyl)-5,6,7,8-tetrahydropyrido[3,4-d]pyrimidine] the EC50 was under 1 µM.
With `C=CC(=O)N1CCc2c(nc(-c3ccc(C(F)(F)F)cc3)nc2-c2nnn(C)n2)C1` [Cpd. No. 81, 1-(4-(2-methyl-2H-tetrazol-5-yl)-2-(4-(trifluoromethyl)phenyl)-5,8-dihydropyrido[3,4-d]pyrimidin-7(6H)-yl)prop-2-en-1-one] the EC50 was under 1 µM.
Work on `C=CC(=O)N1CCc2c(nc(-c3ccc(C(F)(F)F)cc3)nc2-c2nnnn2C)C1` [Cpd. No. 82, 1-(4-(1-methyl-1H-tetrazol-5-yl)-2-(4-(trifluoromethyl)phenyl)-5,8-dihydropyrido[3,4-d]pyrimidin-7(6H)-yl)prop-2-en-1-one] yielded an EC50 of under 1 µM.
`CN(C)C/C=C/C(=O)N1CCc2c(nc(-c3ccc(C(F)(F)F)cc3)nc2-c2ccn(C)n2)C1` [Cpd. No. 83, (E)-4-(dimethylamino)-1-(4-(1-methyl-1H-pyrazol-3-yl)-2-(4-(trifluoromethyl)phenyl)-5,8-dihydropyrido[3,4-d]pyrimidin-7(6H)-yl)but-2-en-1-one] showed an EC50 of under 1 µM.
`Cn1ccc(-c2nc(-c3ccc(C(F)(F)F)cc3)nc3c2CCN(C(=O)C2=CCCC2)C3)n1` [Cpd. No. 84, cyclopent-1-en-1-yl(4-(1-methyl-1H-pyrazol-3-yl)-2-(4-(trifluoromethyl)phenyl)-5,8-dihydropyrido[3,4-d]pyrimidin-7(6H)-yl)methanone] gave an EC50 of under 1 µM.
